From patent US20260152487A1 (Sitryx Therapeutics Limited, priority 2021, published 2026) come the findings set out here.

The target in one test is T1, recombinant human PKM2 (Homo sapiens, UniProt P14618).
T1 construct: His (N); purchased R&D Systems
As to the kind of experiment: Human PKM2 activation assay (Kinase-Glo Plus luminescent detection of generated ATP). It counts as biochemical. As to conditions: for Emax: percentage activation normalised to DMSO vehicle (LOW) and 5 μM TEPP-46 (HIGH), read-out: hPKM2 Emax; for EC50: recombinant human PKM2 activation, 4-parameter logistic fit, read-out: hPKM2 EC50. An outline of the steps: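 N-His-tagged recombinant hPKM2 ([…]) with PEP and ADP was incubated with compound for 60 min at 26 °C, shaking, in 50 mM imidazole, 50 mM KCl, 7 mM MgCl2, 0.01% Tween20, 0.05% BSA, pH 7.2. ATP produced was read by Kinase-Glo Plus luminescence after 15 min.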
On the technique in general: Kinase-Glo reads ATP consumption through a luciferase reaction.

For the next test, the target named is T2, recombinant human PKLR (Homo sapiens, UniProt P30613).
T2 construct: His (N); purchased R&D Systems
T2 sequence (P30613 whole entry): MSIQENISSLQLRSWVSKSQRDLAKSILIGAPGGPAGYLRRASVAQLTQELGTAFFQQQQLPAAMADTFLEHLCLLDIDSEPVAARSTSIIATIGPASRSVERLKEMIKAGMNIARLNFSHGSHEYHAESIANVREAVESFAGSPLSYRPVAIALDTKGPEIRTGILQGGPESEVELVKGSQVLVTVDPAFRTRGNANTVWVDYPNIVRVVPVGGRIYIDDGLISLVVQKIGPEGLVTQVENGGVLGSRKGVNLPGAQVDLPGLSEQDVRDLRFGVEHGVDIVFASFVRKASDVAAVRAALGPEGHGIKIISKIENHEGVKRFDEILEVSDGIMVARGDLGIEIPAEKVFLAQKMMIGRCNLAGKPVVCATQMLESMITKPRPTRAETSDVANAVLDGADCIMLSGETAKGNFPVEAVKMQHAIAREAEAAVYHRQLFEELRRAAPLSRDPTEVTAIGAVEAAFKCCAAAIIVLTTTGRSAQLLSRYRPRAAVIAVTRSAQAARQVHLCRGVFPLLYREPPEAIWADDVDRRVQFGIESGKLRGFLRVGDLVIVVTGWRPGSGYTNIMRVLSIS
Briefly: Human PKLR activation assay (Kinase-Glo Plus luminescent detection of generated ATP). The test is classed as biochemical. As to conditions: for EC50: activation of recombinant human PKLR, 4-parameter logistic fit, read-out: hPKLR EC50; for Emax: percentage activation normalised to DMSO vehicle (LOW) and 5 μM TEPP-46 (HIGH) controls, read-out: hPKLR Emax (%). As to the method: Compound activation of recombinant human PKLR pyruvate kinase activity was determined by biochemical assay. N-terminal His-tagged enzyme was sourced from R&D Systems and its substrates phosphoenolpyruvate (PEP) and ADP from Sigma-Aldrich and 2Bscientific Ltd, respectively. The Kinase-Glo® Plus luminescence assay was from Promega. All other reagents were from Sigma-Aldrich. Test Compounds were prepared as 10 mM DMSO stocks and dilution series prepared in DMSO for direct dilution into Assay Buffer comprising 50 mM imidazole, 50 mM KCl, 7 mM MgCl2, 0.01% Tween20, 0.05% BSA (pH 7.2).
Human PKLR was diluted into Assay Buffer to a final concentration of 5 pM. Enzyme-Assay Buffer mix was dispensed into 384-well shallow-well white-walled plates and Test Compounds added by acoustic dispense (Echo®, Labcyte Inc).
After 60 minutes' incubation on an orbital shaker (300 rpm, 26° C.), enzyme activity was quantified by the luminescent detection of generated ATP. Kinase-Glo® Plus reagent was added to each well and the plates incubated for a further 15 minutes on an orbital shaker in the dark (300 rpm, 26° C.) before luminescence measurement on a plate reader (PHERAstar® FSX, BMG Labtech).
Percentage activation was calculated by normalising […] signals to plate LOW (DMSO vehicle) and HIGH (5 μM TEPP-46) controls. EC50 and Emax values were determined from 4-parameter logistic fits of compound concentration-response curves.

T1 sequence (P14618 2-531 limits assumed): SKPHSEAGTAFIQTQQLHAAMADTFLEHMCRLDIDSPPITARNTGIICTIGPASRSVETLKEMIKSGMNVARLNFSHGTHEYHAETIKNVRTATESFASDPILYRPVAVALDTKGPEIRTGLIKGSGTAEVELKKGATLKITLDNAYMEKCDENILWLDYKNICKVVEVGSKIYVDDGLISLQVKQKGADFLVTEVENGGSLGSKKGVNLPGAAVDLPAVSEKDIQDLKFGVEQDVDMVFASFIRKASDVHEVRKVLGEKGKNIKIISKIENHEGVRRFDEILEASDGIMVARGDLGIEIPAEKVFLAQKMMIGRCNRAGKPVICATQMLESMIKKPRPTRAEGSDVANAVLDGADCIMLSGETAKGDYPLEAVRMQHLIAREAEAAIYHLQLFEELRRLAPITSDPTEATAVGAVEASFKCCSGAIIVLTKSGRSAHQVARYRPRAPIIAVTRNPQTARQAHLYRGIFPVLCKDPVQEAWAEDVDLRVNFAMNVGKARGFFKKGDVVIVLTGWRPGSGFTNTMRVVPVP

One may read the Emax as the maximal effect, on the per cent scale that the assay sets. The term EC50 denotes the concentration at which the effect is half-maximal. For `COc1ccc(S(=O)(=O)c2ccc3c(=O)n(Cc4ccn(C5CC5)n4)ncc3c2)cn1` [Example 205, 2-((1-cyclopropyl-1H-pyrazol-3-yl)methyl)-6-((6-methoxypyridin-3-yl)sulfonyl)phthalazin-1(2H)-one], at recombinant human PKM2, the Emax came out at 120% and the EC50 was 59.2 nM. Also, at recombinant human PKLR, the EC50 amounted to 8 nM and the maximum response (Emax) was 115%.

`O=c1c2ccc(S(=O)(=O)c3cn[nH]c3)cc2cnn1Cc1cccc(C2CC2)n1` [Example 287, 6-((1H-pyrazol-4-yl)sulfonyl)-2-((6-cyclopropylpyridin-2-yl)methyl)phthalazin-1(2H)-one]: on recombinant human PKM2, the maximal effect (Emax) is 103% and the EC50 turned out to be 45.2 nM. In addition, on recombinant human PKLR, the EC50 stood at 13 nM and the maximum response (Emax) came to 110%.

`Cn1cc(S(=O)(=O)c2ccc3c(=O)n(Cc4cc[nH]n4)ncc3c2)cn1` [Example 240, 2-((1H-pyrazol-3-yl)methyl)-6-((1-methyl-1H-pyrazol-4-yl)sulfonyl)phthalazin-1(2H)-one]: at recombinant human PKM2, the Emax was determined as 107% and the 50% effective concentration (EC50) stood at 159 nM. For the same compound, at recombinant human PKLR, the EC50 came to 30.3 nM and the maximum response (Emax) came to 125%.

With `COc1ccc(S(=O)(=O)c2ccc3c(=O)n(Cc4ncccc4O)ncc3c2)cc1` [Example 113, 2-((3-hydroxypyridin-2-yl)methyl)-6-(4-methoxyphenylsulfonyl)phthalazin-1(2H)-one], at recombinant human PKM2, the maximal response (Emax) came to 133% and the EC50 turned out to be 163 nM. At recombinant human PKLR, the EC50 is 9.64 nM and the maximum response (Emax) was determined as 118%.

`O=c1c2ccc(S(=O)(=O)c3cn[nH]c3)cc2cnn1Cc1cc2n(n1)CCO2` [Example 323]: the half-maximal effective concentration (EC50) at recombinant human PKM2 came out at 50.5 nM; on recombinant human PKLR it was 6.44 nM.

On to `COc1ccc(Cn2ncc3cc(S(=O)(=O)c4ccc(C)s4)ccc3c2=O)cn1` [Example 171, 2-((6-methoxypyridin-3-yl)methyl)-6-(5-methylthiophen-2-ylsulfonyl)phthalazin-1(2H)-one], for which, on recombinant human PKM2, the Emax is 82.3% and the EC50 is 77.2 nM.

For the compound `N=S(=O)(c1cn[nH]c1)c1ccc2c(=O)n(Cc3ccc4c(n3)CCO4)ncc2c1` (stereo not drawn) [Example 341], on recombinant human PKM2, the Emax was found to be 107% and the EC50 is 109 nM.

For `Cn1ccc2cc(S(=O)(=O)c3ccc4c(=O)n(Cc5cc[nH]n5)ncc4c3)ccc21` [Example 231, 2-((1H-pyrazol-3-yl)methyl)-6-((1-methyl-1H-indol-5-yl)sulfonyl)phthalazin-1(2H)-one], at recombinant human PKM2, the Emax amounted to 111% and the concentration giving a half-maximal response (EC50) was 93.5 nM.

On to `COc1ccc(Cn2ncc3cc(S(=O)(=O)c4cnn(CCO)c4)ccc3c2=O)nc1` [Example 311], for which, at recombinant human PKM2, the Emax came out at 105% and the half-maximal effective concentration (EC50) amounted to 238 nM.

Regarding `O=c1c2ccc(S(=O)(=O)c3csc(C4CC4)n3)cc2cnn1Cc1cc[nH]n1` [Example 346], at recombinant human PKM2, the Emax was 96.7% and the EC50 is 42.3 nM.

In the case of `COc1ccc(Cn2ncc3cc(S(=O)(=O)c4ccn(C(F)F)n4)ccc3c2=O)cn1` [Example 179, 6-(1-(difluoromethyl)-1H-pyrazol-3-ylsulfonyl)-2-((6-methoxypyridin-3-yl)methyl)phthalazin-1(2H)-one], at recombinant human PKM2, the Emax came to 89.7% and the concentration giving a half-maximal response (EC50) amounted to 56.1 nM.

With `N=[S@](=O)(c1cn[nH]c1)c1ccc2c(=O)n(Cc3ccc4c(n3)CCO4)ncc2c1` (stereo in doubt) [Example 363], at recombinant human PKM2, the Emax was found to be 105% and the EC50 was determined as 128 nM.

As to `Cc1cc(Cn2ncc3cc(S(=O)(=O)c4cnn(C(F)F)c4)ncc3c2=O)n[nH]1` [Example 343], at recombinant human PKM2, the Emax was found to be 98.2% and the 50% effective concentration (EC50) worked out at 97.6 nM.

Regarding `Cn1cc(S(=O)(=O)c2ccc3c(=O)n(Cc4cccc(C5(O)COC5)n4)ncc3c2)cn1` [Example 283, 2-((6-(3-hydroxyoxetan-3-yl)pyridin-2-yl)methyl)-6-((1-methyl-1H-pyrazol-4-yl)sulfonyl)phthalazin-1(2H)-one], on recombinant human PKM2, the maximal effect (Emax) worked out at 78.6% and the EC50 came out at 441 nM.

With `Cn1ccc(Cn2ncc3cc(S(=O)(=O)c4ccccc4)cc(F)c3c2=O)n1` [Example 245, 8-fluoro-2-((1-methyl-1H-pyrazol-3-yl)methyl)-6-(phenylsulfonyl)phthalazin-1(2H)-one], on recombinant human PKM2, the maximal response (Emax) amounted to 103% and the half-maximal effective concentration (EC50) worked out at 54.2 nM.

Consider `CC1Cc2cc(S(=O)(=O)c3ccc4c(=O)n(Cc5ccn(C)n5)ncc4c3)ccc2O1` (stereo not drawn) [Example 213, 2-((1-methyl-1H-pyrazol-3-yl)methyl)-6-((2-methyl-2,3-dihydrobenzofuran-5-yl)sulfonyl)phthalazin-1(2H)-one], for which, at recombinant human PKM2, the Emax turned out to be 107% and the EC50 amounted to 36.5 nM.

Consider `N=[S@@](=O)(c1cn[nH]c1)c1ccc2c(=O)n(Cc3ccc4c(n3)CCO4)ncc2c1` (stereo in doubt) [Example 364], for which, at recombinant human PKM2, the Emax amounted to 114% and the EC50 worked out at 35 nM.

Regarding `O=c1c2ccc(S(=O)(=O)c3ccn(CCO)n3)cc2cnn1Cc1cccnc1O` [Example 237, 6-(1-(2-hydroxyethyl)-1H-pyrazol-3-ylsulfonyl)-2-((2-hydroxypyridin-3-yl)methyl)phthalazin-1(2H)-one], on recombinant human PKM2, the Emax is 80.7% and the half-maximal effective concentration (EC50) turned out to be 582 nM.

In the case of `COc1ccc(Cn2ncc3cc(S(=O)(=O)c4cc(C)ccn4)ccc3c2=O)cn1` [Example 159, 2-((6-methoxypyridin-3-yl)methyl)-6-(4-methylpyridin-2-ylsulfonyl)phthalazin-1(2H)-one], at recombinant human PKM2, the maximum response (Emax) came to 72.4% and the half-maximal effective concentration (EC50) is 501 nM.

Consider `Cc1c(Cn2ncc3cc(S(=O)(=O)c4cn[nH]c4)ccc3c2=O)nn2c1OCC2` [Example 362], for which, on recombinant human PKM2, the Emax was found to be 105% and the EC50 stood at 42 nM.

Consider `O=c1c2ccc(S(=O)(=O)c3ccc4[nH]ccc4c3)cc2cnn1Cc1cc[nH]n1` [Example 226, 6-((1H-indol-5-yl)sulfonyl)-2-((1H-pyrazol-3-yl)methyl)phthalazin-1(2H)-one], for which, at recombinant human PKM2, the maximum response (Emax) turned out to be 114% and the EC50 amounted to 356 nM.

Regarding `Cc1cccc(Cn2ncc3cc(S(=O)(=O)c4n[nH]cc4Cl)ccc3c2=O)n1` [Example 319], on recombinant human PKM2, the Emax was found to be 102% and the concentration giving a half-maximal response (EC50) came out at 157 nM.

Regarding `COc1ccc(Cn2ncc3cc(S(=O)(=O)c4cccc5[nH]ncc45)ccc3c2=O)cn1` [Example 123, 6-((1H-indazol-4-yl)sulfonyl)-2-((6-methoxypyridin-3-yl)methyl)phthalazin-1(2H)-one], on recombinant human PKM2, the maximum response (Emax) was 74.4% and the EC50 was 123 nM.

Take `Cc1ccc(S(=O)(=O)c2ccc3c(=O)n(Cc4cccc(N)c4)ncc3c2)s1` [Example 146, 2-(3-aminobenzyl)-6-((5-methylthiophen-2-yl)sulfonyl)phthalazin-1(2H)-one]: at recombinant human PKM2, the Emax came out at 115% and the EC50 is 75.3 nM.

Turning to `COc1ccc(Cn2ncc3cc(S(=O)(=O)c4cnc5c(c4)CCO5)ccc3c2=O)cn1` [Example 183, 6-((2,3-dihydrofuro[2,3-b]pyridin-5-yl)sulfonyl)-2-((6-methoxypyridin-3-yl)methyl)phthalazin-1(2H)-one], at recombinant human PKM2, the maximal effect (Emax) turned out to be 79.7% and the concentration for a half-maximal effect (EC50) turned out to be 47.2 nM.

With `COc1ccc(Cn2ncc3cc([S@](=N)(=O)c4ccccc4)ccc3c2=O)cn1` (single isomer, unassigned) [Example 132], at recombinant human PKM2, the Emax came out at 95.1% and the concentration for a half-maximal effect (EC50) came to 289 nM.

With `Cc1cc(Cn2ncc3cc(S(=O)(=O)c4ccccc4)ccc3c2=O)sn1` [Example 97, 2-((3-methylisothiazol-5-yl)methyl)-6-(phenylsulfonyl)phthalazin-1(2H)-one], on recombinant human PKM2, the Emax was found to be 99.1% and the EC50 came out at 715 nM.

Consider `COc1ccc(Cn2ncc3cc(S(=O)(=O)c4cc[nH]n4)ccc3c2=O)nc1` [Example 325], for which, at recombinant human PKM2, the Emax stood at 111% and the half-maximal effective concentration (EC50) is 151 nM.

On to `Cc1[nH]nc(Cn2ncc3cc(S(=O)(=O)c4cc[nH]n4)ccc3c2=O)c1Cl` [Example 332], for which, at recombinant human PKM2, the 50% effective concentration (EC50) was found to be 42.9 nM.

On to `O=c1c2ccc(S(=O)(=O)c3cc[nH]n3)cc2cnn1Cc1ccc2c(n1)CCO2` [Example 299, 6-((1H-pyrazol-3-yl)sulfonyl)-2-((2,3-dihydrofuro[3,2-b]pyridin-5-yl)methyl)phthalazin-1(2H)-one], for which, on recombinant human PKM2, the maximal response (Emax) was determined as 104% and the concentration for a half-maximal effect (EC50) came out at 31.2 nM.

As for `COC(C)c1nc(S(=O)(=O)c2ccc3c(=O)n(Cc4cc5n(n4)CCO5)ncc3c2)cs1` (stereo not drawn) [Example 356], on recombinant human PKM2, the maximal response (Emax) turned out to be 95.5% and the EC50 was 53 nM.
